Source: patent US9351974B2, “Substituted pteridinones for the treatment of cancer” (OSI Pharmaceuticals, LLC, priority 2011, dated 2016)

The compounds below were run against T1, His-tagged full-length RSK2 (RPS6KA3) (Homo sapiens, UniProt P51812) (assay: RSK2 Omnia Assay for compound IC50 determination). Settings: ATP 15 μM, n=2, read-out: Mean RSK2 Biochem IC50.
T1 construct: His-tagged full-length RSK2 (RPS6KA3, Invitrogen PV3323); His; purchased Invitrogen PV3323
Assay type: biochemical
Summary of the method: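 Initial-rate slopes from continuous kinetic reads were fitted to a four-parameter equation for IC50 (n=2). Ki was then derived by Cheng-Prusoff assuming ATP-competitive inhibition. Reactions contained 15 μM ATP (Km 16.3 μM), 5 μM Omnia ST Peptide 6, and […] in 50 mM HEPES pH 7.5, 10 mM MgCl2, 1 mM DTT, 1% DMSO. Compounds spanned 11 threefold steps, […] final.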

T1 sequence (P51812 whole entry): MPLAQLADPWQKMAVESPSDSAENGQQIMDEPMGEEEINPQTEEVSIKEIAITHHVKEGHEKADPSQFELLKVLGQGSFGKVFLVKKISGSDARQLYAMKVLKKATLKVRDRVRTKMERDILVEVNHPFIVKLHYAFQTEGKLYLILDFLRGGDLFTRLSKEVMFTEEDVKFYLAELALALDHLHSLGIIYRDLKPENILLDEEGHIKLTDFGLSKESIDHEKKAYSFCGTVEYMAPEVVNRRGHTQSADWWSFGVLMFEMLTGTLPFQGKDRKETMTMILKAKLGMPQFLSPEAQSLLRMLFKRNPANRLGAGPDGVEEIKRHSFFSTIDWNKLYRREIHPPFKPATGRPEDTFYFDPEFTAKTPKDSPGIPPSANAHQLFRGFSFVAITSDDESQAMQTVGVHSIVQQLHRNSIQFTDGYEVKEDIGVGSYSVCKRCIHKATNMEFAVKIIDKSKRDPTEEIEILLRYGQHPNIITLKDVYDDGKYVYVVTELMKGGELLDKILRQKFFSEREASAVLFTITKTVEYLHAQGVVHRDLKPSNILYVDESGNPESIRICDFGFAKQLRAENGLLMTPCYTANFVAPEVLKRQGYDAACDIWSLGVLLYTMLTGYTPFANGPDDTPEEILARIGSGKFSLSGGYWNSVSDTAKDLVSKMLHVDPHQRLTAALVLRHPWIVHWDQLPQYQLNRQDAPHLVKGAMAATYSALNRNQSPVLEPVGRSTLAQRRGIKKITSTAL

| IC50 | Compound |
| --- | --- |
| ≤ 100 nM | [2H]C1([2H])C(N2c3nc(Nc4cc(F)c5[nH]ncc5c4)ncc3N(c3ccc(OC)c(OC)c3)C(=O)[C@H]2C)C([2H])([2H])C([2H])([2H])C([2H])([2H])C1([2H])[2H] [compound 300, (7R)-8-[(2,2,3,3,4,4,5,5,6,6-2H10)cyclohexyl]-5-(3,4-dimethoxyphenyl)-2-[(7-fluoro-1H-indazol-5-yl)amino]-7-methyl-7,8-dihydropteridin-6(5H)-one] |
| ≤ 100 nM | CCOc1ccc(N2C(=O)[C@@H](C)N(C3CCOCC3)c3nc(Nc4cc(F)c5[nH]ncc5c4)ncc32)cc1C#N [compound 195, 2-Ethoxy-5-[(7R)-2-[(7-fluoro-1H-indazol-5-yl)amino]-7-methyl-6-oxo-8-(tetrahydro-2H-pyran-4-yl)-7,8-dihydropteridin-5(6H)-yl]benzonitrile] |
| 100 to 1000 nM | C[C@@H]1C(=O)N(c2cccc(C#N)c2)c2cnc(Nc3ccc4[nH]nc(C#N)c4c3)nc2N1C1CCCCC1 [compound 157, 5-{[(7R)-5-(3-cyanophenyl)-8-cyclohexyl-7-methyl-6-oxo-5,6,7,8-tetrahydropteridin-2-yl]amino}-1H-indazole-3-carbonitrile] |
| ≤ 100 nM | C[C@@H]1C(=O)N(c2cccc(C#N)c2)c2cnc(Nc3ccc4[nH]ncc4c3)nc2N1C1CCCC1 [Example 69, 3-[(7R)-8-cyclopentyl-2-(1H-indazol-5-ylamino)-7-methyl-6-oxo-7,8-dihydropteridin-5(6H)-yl]benzonitrile] |
| ≤ 100 nM | C[C@@H]1C(=O)N(c2cccc(S(C)(=O)=O)c2)c2cnc(Nc3ccc4[nH]ncc4c3)nc2N1C1CCCCC1 [Example 43, (7R)-8-cyclohexyl-2-(1H-indazol-5-ylamino)-7-methyl-5-[3-(methylsulfonyl)phenyl]-7,8-dihydropteridin-6(5H)-one] |
| 100 to 1000 nM | CC(C)Oc1ccc(N2C(=O)[C@@H](C)N(C3CCC(F)(F)CC3)c3nc(Nc4cnc5[nH]ncc5c4)ncc32)cc1C#N [compound 286, 5-[(7R)-8-(4,4-difluorocyclohexyl)-7-methyl-6-oxo-2-(1H-pyrazolo[3,4-b]pyridin-5-ylamino)-7,8-dihydropteridin-5(6H)-yl]-2-(propan-2-yloxy)benzonitrile] |
| ≤ 100 nM | COc1ccc(N2C(=O)[C@@H](C)N(C3CCOCC3)c3nc(Nc4cc(F)c5[nH]c(=O)oc5c4)ncc32)cc1C#N [compound 203, 5-[(7R)-2-[(4-fluoro-2-oxo-2,3-dihydro-1,3-benzoxazol-6-yl)amino]-7-methyl-6-oxo-8-(tetrahydro-2H-pyran-4-yl)-7,8-dihydropteridin-5(6H)-yl]-2-methoxybenzonitrile] |
| ≤ 100 nM | C[C@@H]1C(=O)N(c2ccc(N3CCCC3)nc2)c2cnc(Nc3cc(F)c4[nH]ncc4c3)nc2N1C1CCC(C)(C)CC1 [Example 214, (7R)-8-(4,4-dimethylcyclohexyl)-2-[(7-fluoro-1H-indazol-5-yl)amino]-7-methyl-5-[6-(pyrrolidin-1-yl)pyridin-3-yl]-7,8-dihydropteridin-6(5H)-one] |
| ≤ 100 nM | C[C@@H]1C(=O)N(c2ccc(N3CCCCC3)nc2)c2cnc(Nc3cc(F)c4[nH]ncc4c3)nc2N1C1CCCCC1 [compound 142, (7R)-8-cyclohexyl-2-[(7-fluoro-1H-indazol-5-yl)amino]-7-methyl-5-[6-(piperidin-1-yl)pyridin-3-yl]-7,8-dihydropteridin-6(5H)-one] |
| ≤ 100 nM | COc1n[nH]c2ccc(Nc3ncc4c(n3)N(C3CCCCC3)[C@H](C)C(=O)N4c3cccc(C#N)c3)cc12 [compound 116, 3-[(7R)-8-cyclohexyl-2-[(3-methoxy-1H-indazol-5-yl)amino]-7-methyl-6-oxo-7,8-dihydropteridin-5(6H)-yl]benzonitrile] |
| ≤ 100 nM | C[C@@H]1C(=O)N(c2cccc(OC(F)(F)F)c2)c2cnc(Nc3ccc4[nH]ncc4c3)nc2N1C1CCCCC1 [Example 34, (7R)-8-cyclohexyl-2-(1H-indazol-5-ylamino)-7-methyl-5-[3-(trifluoromethoxy)phenyl]-7,8-dihydropteridin-6(5H)-one] |
| ≤ 100 nM | CC(C)Oc1ccc(N2C(=O)[C@@H](C)N(C3CCC(F)(F)CC3)c3nc(Nc4ccc5[nH]c(=O)oc5c4)ncc32)cc1C#N [compound 285, 5-[(7R)-8-(4,4-difluorocyclohexyl)-7-methyl-6-oxo-2-[(2-oxo-2,3-dihydro-1,3-benzoxazol-6-yl)amino]-7,8-dihydropteridin-5(6H)-yl]-2-(propan-2-yloxy)benzonitrile] |
| > 1000 nM | CC(C)CCN1c2nc(N[C@H]3CC[C@H](O)CC3)ncc2N(c2ccccc2)C(=O)C1C (relative stereo) [Example 11, 2-[(trans-4-hydroxycyclohexyl)amino]-7-methyl-8-(3-methylbutyl)-5-phenyl-7,8-dihydropteridin-6(5H)-one] |
| ≤ 100 nM | CC[C@@H]1C(=O)N(c2cccnc2)c2cnc(Nc3cc(F)c4[nH]ncc4c3)nc2N1C1CCCCC1 [compound 288, (7R)-8-cyclohexyl-7-ethyl-2-[(7-fluoro-1H-indazol-5-yl)amino]-5-(pyridin-3-yl)-7,8-dihydropteridin-6(5H)-one] |
| ≤ 100 nM | COc1ccc(N2C(=O)[C@@H](C)N(C3CCCCC3)c3nc(Nc4ccc5[nH]ncc5c4)ncc32)cn1 [Example 48, (7R)-8-cyclohexyl-2-(1H-indazol-5-ylamino)-5-(6-methoxypyridin-3-yl)-7-methyl-7,8-dihydropteridin-6(5H)-one] |
| 100 to 1000 nM | N#Cc1cccc(N2C(=O)[C@H]3CCCN3c3nc(Nc4cc(F)c5[nH]ncc5c4)ncc32)c1 [Example 84, 3-[(6aR)-2-[(7-fluoro-1H-indazol-5-yl)amino]-6-oxo-6a,7,8,9-tetrahydropyrrolo[2,1-h]pteridin-5(6H)-yl]benzonitrile] |
| ≤ 100 nM | C[C@@H]1C(=O)N(c2cccc(CO)c2)c2cnc(Nc3ccc4[nH]ncc4c3)nc2N1C1CCCCC1 [compound 127, (7R)-8-cyclohexyl-5-[3-(hydroxymethyl)phenyl]-2-(1H-indazol-5-ylamino)-7-methyl-7,8-dihydropteridin-6(5H)-one] |
| ≤ 100 nM | C[C@@H]1C(=O)N(c2cccc(C#N)c2)c2cnc(Nc3ccc4[nH]nc(F)c4c3)nc2N1C1CCCCC1 [compound 115, 3-[(7R)-8-cyclohexyl-2-[(3-fluoro-1H-indazol-5-yl)amino]-7-methyl-6-oxo-7,8-dihydropteridin-5(6H)-yl]benzonitrile] |
| ≤ 100 nM | CC(C)CCN1c2nc(Nc3ccc4[nH]ncc4c3)ncc2N(c2ccccc2)C(=O)C1(C)C [Example 70, 2-(1H-indazol-5-ylamino)-7,7-dimethyl-8-(3-methylbutyl)-5-phenyl-7,8-dihydropteridin-6(5H)-one] |
| 100 to 1000 nM | CC(C)CCN1c2nc(Nc3ccc(CC(=O)N(C)C)cc3)ncc2N(c2ccccc2)C(=O)C1C (stereo not drawn) [Example 6, N,N-dimethyl-2-(4-{[7-methyl-8-(3-methylbutyl)-6-oxo-5-phenyl-5,6,7,8-tetrahydropteridin-2-yl]amino}phenyl)acetamide] |
| ≤ 100 nM | C[C@@H]1C(=O)N(c2cccnc2)c2cnc(Nc3cc(F)c(O)c(F)c3)nc2N1C1CCCCC1 [compound 160, (7R)-8-cyclohexyl-2-[(3,5-difluoro-4-hydroxyphenyl)amino]-7-methyl-5-(pyridin-3-yl)-7,8-dihydropteridin-(5H)-one.] |
